Data on 4 compounds can be found in publication PMC10419307, “The Effect of Metal Ions (Fe, Co, Ni, and Cu) on the Molecular-Structural, Protein Binding, and Cytotoxic Properties of Metal Pyridoxal-Thiosemicarbazone Complexes” (International Journal of Molecular Sciences, 2023).

SMILES strings stand for the structures. Like-named read-outs stand apart in the source and are kept apart here. A value given as a limit tells only on which side of the number the result lay.

In assay [1] the test system is MCF-7 breast cancer. The assay is described as follows: MTT viability assay. In kind it is cell-based, Human. The following applies: MCF-7, MTT, 72 h. As to the method:
(§1) Human cell lines (A375 melanoma, MCF-7 breast cancer, HCT116 colorectal carcinoma, A2780 ovarian cancer, and MRC5 lung fibroblasts) were purchased from American Type Culture Collection (Rockville, MD, USA).
(§2) The A2780 cells were cultivated in DMEM, while all of the other cell lines were cultivated in the HEPES-buffered RPMI-1640 medium. The cell culture mediums were supplemented with penicillin (100 units/mL), streptomycin (100 μg/mL), and 10% inactivated FBS. All of the cells were cultivated at 37 °C in a humidified atmosphere with 5% CO2.
(§3) The cells were seeded overnight in 96-well plates: A2780 and MRC-5 8 × 10^3 cells/well, HCT 116 6 × 10^3 cells/well, A375 5 × 10^3 cells/well, and MCF-7 at 10 × 10^3 cells/well [58]. All of the cells were treated with the following concentrations of investigated compounds: 100, 50, 25, 12.5, 6.25, 3.125, and 1.56 μM, except for the A2780 cells, which were treated with the following concentrations for the Cu compound only: 25, 12.5, 6.25, 3.125, 1.56, 0.78, and 0.39 μM. After 72 h of treatment, viability assays were conducted.

In assay [2] the test system is HCT116 colorectal carcinoma. The assay is described as follows: MTT viability assay. The assay is classed as cell-based, Human. The following applies: 72 h. As to the method: as §1, §2, §3
(Tetrazolium dyes change colour on reduction, which living cells bring about.)

Assay [3] relates to MRC5 lung fibroblasts. The assay is described as follows: MTT viability assay. In kind it is cell-based, Human. The following applies: 72 h. As for the experimental part:
as §1, §2, §3

Assay [4] has as its system A375 melanoma. The assay is described as follows: MTT viability assay. The assay is classed as cell-based, Human. The following applies: 72 h. As to the method: as §1, §2, §3
The subject of assay [5] is A2780 ovarian cancer. The assay is described as follows: MTT viability assay. In kind it is cell-based, Human. The following applies: 72 h. As for the experimental part: as §1, §2, §3
For assay [6], the system named is MCF-7 breast cancer. The assay is described as follows: CV viability assay. The assay is classed as cell-based, Human. The following applies: MCF-7, CV, 72 h. As to the method: as §1, §2, §3
Assay [7] relates to HCT116 colorectal carcinoma. Briefly: CV viability assay. In kind it is cell-based, Human. The following applies: 72 h. As for the experimental part:
as §1, §2, §3

Assay [8] has as its system MRC5 lung fibroblasts. Briefly: CV viability assay. In kind it is cell-based, Human. The following applies: 72 h. As for the experimental part:
as §1, §2, §3

The test system of assay [9] is A375 melanoma. The assay is described as follows: CV viability assay. The assay is classed as cell-based, Human. The following applies: 72 h. As for the experimental part: as §1, §2, §3
Assay [10] deals with A2780 ovarian cancer. Briefly: CV viability assay. The following applies: 72 h. The assay is classed as cell-based, Human. As for the experimental part:
as §1, §2, §3

The target in a further assay is T1, BSA (Bos taurus, UniProt P02769).
T1 construct: purchased Merck
T1 sequence (P02769 25-607): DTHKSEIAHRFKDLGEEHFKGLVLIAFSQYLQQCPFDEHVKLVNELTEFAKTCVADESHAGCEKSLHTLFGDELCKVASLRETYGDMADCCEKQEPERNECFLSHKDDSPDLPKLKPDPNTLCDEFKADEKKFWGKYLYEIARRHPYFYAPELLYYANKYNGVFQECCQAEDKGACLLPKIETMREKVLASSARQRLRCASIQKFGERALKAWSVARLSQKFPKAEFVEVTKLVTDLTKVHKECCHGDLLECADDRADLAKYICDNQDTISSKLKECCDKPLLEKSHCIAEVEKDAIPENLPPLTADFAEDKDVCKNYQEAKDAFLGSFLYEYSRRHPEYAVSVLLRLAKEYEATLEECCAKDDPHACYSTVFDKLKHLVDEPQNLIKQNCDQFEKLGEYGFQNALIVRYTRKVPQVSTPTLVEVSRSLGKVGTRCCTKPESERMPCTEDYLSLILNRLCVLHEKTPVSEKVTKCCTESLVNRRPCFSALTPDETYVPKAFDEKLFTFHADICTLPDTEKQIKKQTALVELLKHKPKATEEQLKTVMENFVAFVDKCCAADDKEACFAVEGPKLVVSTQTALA
Briefly: Competitive spectrofluorometric measurements with warfarin. The assay is classed as binding, bovine. The following applies: for number of binding sites (n), competitive measurements with warfarin: BSA with equimolar warfarin; for BSA subdomain the complex binds to: concluded from competition with warfarin. As for the experimental part:
(§4) The binding affinities of complexes towards bovine serum albumin (BSA) and human serum albumin (HSA) were analyzed using the spectrofluorometric measurements on the Cary Eclipse MY2048CH03 instrument. The scan rate was set to 600 nm min^−1, with both slits being 5 nm. The excitation wavelength for BSA was set to 295 nm and for HSA to 280 nm. These wavelengths are characteristic of the tryptophan residues in the active pocket of proteins. The spectra were recorded from 310 to 500 nm. The concentration of both proteins was held constant at 5 × 10^−6 M, and prepared in 1 M phosphate buffer saline of pH 7.4.
The competitive measurements were performed in the presence of warfarin, a site-specific marker for BSA subdomain IIA [33]. The equimolar concentrations of BSA and warfarin were prepared (5 × 10^−6 M), and after 30 min of incubation, the titrations using the solutions of the investigated complexes were conducted. The final concentrations of the added complexes were the same as for the previous experiments.

For assay [11], the target named is T2, bovine serum albumin (BSA) (Bos taurus, UniProt P02769).
T2 construct: purchased Merck
T2 sequence (P02769 25-607): as above
Briefly: Spectrofluorometric titration, binding to BSA. The following applies: for ΔHb / ΔSb: van't Hoff, 300-310 K. As to the method:
as §4
(§5) The measurements were repeated at three temperatures (27, 32, and 37 °C) to mimic the body temperature and to allow for the calculation of the thermodynamic parameters of binding using the vant’t Hoff equation (Equation (2)):(2) lnKb=−ΔHb/RT+ΔSb/R where ΔHb, ΔSb, and ΔGb represent the change in the enthalpy, entropy, and free energy of the binding process, respectively.

The target in assay [12] is human serum albumin (HSA) (Homo sapiens, UniProt P02768). Briefly: Spectrofluorometric titration, binding to HSA. The following applies: for ΔHb / ΔSb: van't Hoff, 300-310 K. As to the method: as §4, §5
human serum albumin (HSA), sequence (P02768 25-609): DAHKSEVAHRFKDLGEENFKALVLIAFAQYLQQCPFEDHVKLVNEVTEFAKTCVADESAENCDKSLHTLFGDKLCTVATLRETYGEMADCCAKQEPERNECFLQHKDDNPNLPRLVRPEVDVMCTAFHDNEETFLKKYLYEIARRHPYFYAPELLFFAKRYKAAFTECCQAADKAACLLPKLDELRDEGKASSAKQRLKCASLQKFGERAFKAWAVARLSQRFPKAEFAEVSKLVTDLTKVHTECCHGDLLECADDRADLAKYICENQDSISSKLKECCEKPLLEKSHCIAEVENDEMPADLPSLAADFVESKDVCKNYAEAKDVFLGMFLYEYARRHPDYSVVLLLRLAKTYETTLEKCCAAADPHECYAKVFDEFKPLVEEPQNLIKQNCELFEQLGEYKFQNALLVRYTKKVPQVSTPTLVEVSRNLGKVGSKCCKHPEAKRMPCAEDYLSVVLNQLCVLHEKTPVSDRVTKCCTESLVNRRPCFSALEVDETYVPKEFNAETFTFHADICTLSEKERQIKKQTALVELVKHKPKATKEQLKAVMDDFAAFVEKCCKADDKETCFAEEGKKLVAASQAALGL
For assay [13], the system named is MCF-7 breast cancer. Also noted: method as in PMID 36364539. The following applies: MCF-7, MTT test; cited from earlier work.

For `Cc1[nH+]cc(CO)c(C=NN=C(N)[S-])c1[O-].Cc1[nH+]cc(CO)c(C=NN=C(N)[S-])c1[O-].O.[Cl-].[Co+3]` [Co-PLTSC], the IC50 (in the assay with MCF-7 breast cancer [1]; in [2]; in the assay on MRC5 lung fibroblasts [3]; in the assay on A375 melanoma [4]; with A2780 ovarian cancer [5]; in the assay on MCF-7 breast cancer [6]) was greater than 100 µM in each case. Moreover, the IC50 (in assay [7]; with MRC5 lung fibroblasts [8]; with A375 melanoma [9]; in the assay with A2780 ovarian cancer [10]) was greater than 100 µM in each case. Further, the “number of binding sites (n), competitive measurements with warfarin” value (“number of binding sites (n)” for short) at BSA is 1.01. For the same compound, the “Binding constant (Kb), competitive measurements with warfarin” value at BSA (BSA with equimolar warfarin (5 × 10^−6 M), 30 min incubation) worked out at 52500 M⁻¹. At BSA (BSA with warfarin vs without warfarin), the “reduction percentages of the binding constants” value came out at 10%. Moreover, the “BSA subdomain the complex binds to” value at BSA is “subdomains IIA and IIB”. Besides, the “n (number of binding places)” value worked out at 1.1 in [11] (T 300 K); 1.1 in assay [11] (T 305 K); 1.1 in assay [11] (T 310 K); 1.0 in assay [12] (T 300 K); 1.0 in assay [12] (T 305 K); 1.0 in assay [12] (T 310 K). For the same compound, the ΔGb in assay [11] (T 300 K) is -7.34 kcal/mol; in assay [11] (T 305 K), -7.74 kcal/mol; in assay [11] (T 310 K), -8.15 kcal/mol; in assay [12] (T 300 K) it was -6.74 kcal/mol; in assay [12] (T 305 K) it was -6.91 kcal/mol; in assay [12] (T 310 K), -7.05 kcal/mol. Also, the ΔHb stood at 16.8 kcal/mol in assay [11] and 3.04 kcal/mol in assay [12]. In assay [12], the ΔSb stood at 136 J mol^−1 K^−1.

As for `N.N.[Cl][Pt][Cl]` [cisplatin], the IC50 in the assay on MCF-7 breast cancer [13] was 33.6 ± 4.8 µM.

For the compound `Cc1[nH+]cc(CO)c(C=NNC(N)=S)c1[O-].O.[Cl-].[Cl-].[Cl-].[Fe+3]` [Fe-PLTSC, [Fe(PLTSC)Cl2(H2O)]Cl], the IC50 was greater than 100 µM with MCF-7 breast cancer [1]; greater than 100 µM in assay [2]; greater than 100 µM in the assay with MRC5 lung fibroblasts [3]; greater than 100 µM with A375 melanoma [4]; 86.3 ± 13.1 µM with A2780 ovarian cancer [5]; greater than 100 µM with MCF-7 breast cancer [6]. Moreover, the IC50 in assay [7] was greater than 100 µM; in the assay with MRC5 lung fibroblasts [8], greater than 100 µM; in the assay on A375 melanoma [9], greater than 100 µM; in the assay on A2780 ovarian cancer [10], 93.5 ± 9.2 µM. Further, at BSA, the “number of binding sites (n)” value came to 1.10. The “BSA subdomain the complex binds to” value on BSA was “subdomain IIIA”. Further, the “n (number of binding places)” value in assay [11] (T 300 K) is listed as 1.1; in [11] (T 305 K), 1.1; in assay [11] (T 310 K) it was 1.1; in [12] (T 300 K), 1.2; in [12] (T 305 K), 1.2; in assay [12] (T 310 K) it was 1.1. Also, the ΔGb was -7.03 kcal/mol in assay [11] (T 300 K); -7.22 kcal/mol in assay [11] (T 305 K); -7.39 kcal/mol in [11] (T 310 K); -8.08 kcal/mol in [12] (T 300 K); -8.46 kcal/mol in assay [12] (T 305 K); -8.82 kcal/mol in assay [12] (T 310 K). Moreover, the ΔHb was 3.7 kcal/mol in assay [11] and 13.9 kcal/mol in assay [12]. Also, the ΔSb was 149 J mol^−1 K^−1 in [11] and 307 J mol^−1 K^−1 in assay [12].

For `Cc1[nH+]cc(CO)c(C=NNC(N)=S)c1[O-].Cc1[nH+]cc(CO)c(C=NNC(N)=S)c1[O-].O.O=[N+]([O-])[O-].O=[N+]([O-])[O-].[Ni+2]` [Ni-PLTSC, Ni-pyridoxal-thiosemicarbazone], the IC50 (in the assay with MCF-7 breast cancer [1]; in [2]; in the assay with MRC5 lung fibroblasts [3]; with A375 melanoma [4]; with A2780 ovarian cancer [5]; in the assay with MCF-7 breast cancer [6]) was greater than 100 µM in each case. For the same compound, the IC50 (in assay [7]; in the assay with MRC5 lung fibroblasts [8]; with A375 melanoma [9]; with A2780 ovarian cancer [10]) was greater than 100 µM in each case. For the same compound, the “number of binding sites (n)” value at BSA was 1.30. Moreover, at BSA, the “BSA subdomain the complex binds to” value is recorded as “subdomain IIIA”. For the same compound, the “n (number of binding places)” value in assay [11] (T 300 K), in [11] (T 305 K), in assay [11] (T 310 K), in assay [12] (T 300 K), in [12] (T 305 K) and in assay [12] (T 310 K) was 1.2 throughout. Further, the ΔGb is -9.97 kcal/mol in [11] (T 300 K); -9.8 kcal/mol in [11] (T 305 K); -9.66 kcal/mol in assay [11] (T 310 K); -8.87 kcal/mol in assay [12] (T 300 K); -8.89 kcal/mol in assay [12] (T 305 K); -8.89 kcal/mol in [12] (T 310 K). In addition, the ΔHb in assay [11] is -19 kcal/mol; in [12], -7.5 kcal/mol. Besides, the ΔSb in assay [11] is on record as −126 J mol^−1 K^−1; in assay [12], 15.5 J mol^−1 K^−1.

Usually IC50 stands for the concentration needed to halve the response being measured.
